Measurements as given in PubChem BioAssay (NCI).
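In this assay, cells in 96-well plates receive the compound at five concentrations for 48 hours. Endpoints are linearly interpolated between the surrounding concentrations. TGI is the concentration that stops growth completely.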

Columns and labels:
Assay in all cases: NCI-60 cell line screen, 48 h
COLO 205 colon = system: COLO 205 colon
SNB-75 CNS = system: SNB-75 CNS
KM12 colon = system: KM12 colon
NCI-H460 lung = system: NCI-H460 lung
RPMI-8226 leukemia = system: RPMI-8226 leukemia
UACC-62 melanoma = system: UACC-62 melanoma
MCF7 breast = system: MCF7 breast
RXF 393 renal = system: RXF 393 renal
A498 renal = system: A498 renal
BT-549 breast = system: BT-549 breast
ACHN renal = system: ACHN renal
SK-OV-3 ovarian = system: SK-OV-3 ovarian
MOLT-4 leukemia = system: MOLT-4 leukemia
MDA-N = system: MDA-N
HOP-92 NSCLC = system: HOP-92 NSCLC
SR leukemia = system: SR leukemia
CCRF-CEM leukemia = system: CCRF-CEM leukemia
U251 CNS = system: U251 CNS
HCT-15 colon = system: HCT-15 colon
SN12C renal = system: SN12C renal
MALME-3M melanoma = system: MALME-3M melanoma
SF-268 CNS = system: SF-268 CNS
IGROV1 ovarian = system: IGROV1 ovarian
T-47D breast = system: T-47D breast
HCT-116 colon = system: HCT-116 colon
MDA-MB-435 = system: MDA-MB-435
OVCAR-8 ovarian = system: OVCAR-8 ovarian
EKVX NSCLC = system: EKVX NSCLC
TK-10 renal = system: TK-10 renal
NCI-H226 lung = system: NCI-H226 lung
SF-295 CNS = system: SF-295 CNS
SK-MEL-2 melanoma = system: SK-MEL-2 melanoma
NCI-H23 lung = system: NCI-H23 lung
HT29 colon = system: HT29 colon
A549 NSCLC = system: A549 NSCLC
HCC-2998 colon = system: HCC-2998 colon
CAKI-1 renal = system: CAKI-1 renal
PC-3 prostate = system: PC-3 prostate
LOX IMVI melanoma = system: LOX IMVI melanoma
SK-MEL-28 melanoma = system: SK-MEL-28 melanoma
SK-MEL-5 melanoma = system: SK-MEL-5 melanoma
HL-60(TB) leukemia = system: HL-60(TB) leukemia
UACC-257 melanoma = system: UACC-257 melanoma
OVCAR-5 ovarian = system: OVCAR-5 ovarian
OVCAR-3 ovarian = system: OVCAR-3 ovarian
K-562 leukemia = system: K-562 leukemia
M14 melanoma = system: M14 melanoma
786-0 renal = system: 786-0 renal
SW-620 colon = system: SW-620 colon
DU-145 prostate = system: DU-145 prostate
UO-31 renal = system: UO-31 renal
SNB-19 CNS = system: SNB-19 CNS
HOP-62 NSCLC = system: HOP-62 NSCLC
OVCAR-4 ovarian = system: OVCAR-4 ovarian
NCI/ADR-RES ovarian = system: NCI/ADR-RES ovarian
MDA-MB-231 breast = system: MDA-MB-231 breast
HS 578T breast = system: HS 578T breast
SF-539 CNS = system: SF-539 CNS

Compound: Cn1c2c(c3ccccc31)CC(=O)N1CCCC(C1)CC21OCCO1 (configuration not stated)
- TGI (COLO 205 colon): > 100 µM
- TGI (SNB-75 CNS): > 100 µM
- TGI (KM12 colon): > 100 µM
- TGI (NCI-H460 lung): > 100 µM
- TGI (RPMI-8226 leukemia): > 100 µM
- TGI (UACC-62 melanoma): > 100 µM
- TGI (MCF7 breast): > 100 µM
- TGI (RXF 393 renal): > 100 µM
- TGI (A498 renal): > 100 µM
- TGI (BT-549 breast): > 100 µM
- TGI (ACHN renal): > 100 µM
- TGI (SK-OV-3 ovarian): > 100 µM
- TGI (MOLT-4 leukemia): > 100 µM
- TGI (MDA-N): > 100 µM
- TGI (HOP-92 NSCLC): > 100 µM
- TGI (SR leukemia): > 100 µM
- TGI (CCRF-CEM leukemia): > 100 µM
- TGI (U251 CNS): > 100 µM
- TGI (HCT-15 colon): > 100 µM
- TGI (SN12C renal): > 100 µM
- TGI (MALME-3M melanoma): > 100 µM
- TGI (SF-268 CNS): > 100 µM
- TGI (IGROV1 ovarian): > 100 µM
- TGI (T-47D breast): > 100 µM
- TGI (HCT-116 colon): > 100 µM
- TGI (MDA-MB-435): > 100 µM
- TGI (OVCAR-8 ovarian): > 100 µM
- TGI (EKVX NSCLC): > 100 µM
- TGI (TK-10 renal): > 100 µM
- TGI (NCI-H226 lung): > 100 µM
- TGI (SF-295 CNS): > 100 µM
- TGI (SK-MEL-2 melanoma): > 100 µM
- TGI (NCI-H23 lung): > 100 µM
- TGI (HT29 colon): > 100 µM
- TGI (A549 NSCLC): > 100 µM
- TGI (HCC-2998 colon): > 100 µM
- TGI (CAKI-1 renal): > 100 µM
- TGI (PC-3 prostate): > 100 µM
- TGI (LOX IMVI melanoma): > 100 µM
- TGI (SK-MEL-28 melanoma): > 100 µM
- TGI (SK-MEL-5 melanoma): > 100 µM
- TGI (HL-60(TB) leukemia): > 100 µM
- TGI (UACC-257 melanoma): > 100 µM
- TGI (OVCAR-5 ovarian): > 100 µM
- TGI (OVCAR-3 ovarian): > 100 µM
- TGI (K-562 leukemia): > 100 µM
- TGI (M14 melanoma): > 100 µM
- TGI (786-0 renal): > 100 µM
- TGI (SW-620 colon): > 100 µM
- TGI (DU-145 prostate): > 100 µM
- TGI (UO-31 renal): > 100 µM
- TGI (SNB-19 CNS): > 100 µM
- TGI (HOP-62 NSCLC): > 100 µM
- TGI (OVCAR-4 ovarian): > 100 µM
- TGI (NCI/ADR-RES ovarian): > 100 µM
- TGI (MDA-MB-231 breast): > 100 µM

Compound: Oc1ccc(NCc2cc(O)ccc2O)cc1
- TGI (COLO 205 colon): 62.3 µM
- TGI (SNB-75 CNS): 33 µM
- TGI (KM12 colon): 42 µM
- TGI (NCI-H460 lung): 39.1 µM
- TGI (RPMI-8226 leukemia): 44.4 µM
- TGI (UACC-62 melanoma): 29.3 µM
- TGI (HS 578T breast): > 100 µM
- TGI (MCF7 breast): 34.2 µM
- TGI (RXF 393 renal): 28.8 µM
- TGI (A498 renal): 60.1 µM
- TGI (BT-549 breast): 25.8 µM
- TGI (ACHN renal): 29.6 µM
- TGI (SK-OV-3 ovarian): 36.7 µM
- TGI (MOLT-4 leukemia): 7.81 µM
- TGI (MDA-N): 11.1 µM
- TGI (HOP-92 NSCLC): 31.5 µM
- TGI (U251 CNS): 29.5 µM
- TGI (HCT-15 colon): 36.8 µM
- TGI (SN12C renal): 39.3 µM
- TGI (MALME-3M melanoma): 34.3 µM
- TGI (SF-268 CNS): 34.8 µM
- TGI (IGROV1 ovarian): 34.2 µM
- TGI (T-47D breast): 52.1 µM
- TGI (HCT-116 colon): 35.8 µM
- TGI (MDA-MB-435): 32 µM
- TGI (OVCAR-8 ovarian): > 100 µM
- TGI (EKVX NSCLC): 31.2 µM
- TGI (TK-10 renal): 30.4 µM
- TGI (NCI-H226 lung): 50.4 µM
- TGI (SF-295 CNS): 38.3 µM
- TGI (SK-MEL-2 melanoma): 36.3 µM
- TGI (SF-539 CNS): 56.4 µM
- TGI (NCI-H23 lung): 38.7 µM
- TGI (HT29 colon): 57.6 µM
- TGI (A549 NSCLC): > 100 µM
- TGI (HCC-2998 colon): 30.8 µM
- TGI (CAKI-1 renal): 34.9 µM
- TGI (PC-3 prostate): 28.4 µM
- TGI (LOX IMVI melanoma): 38 µM
- TGI (SK-MEL-28 melanoma): 45.7 µM
- TGI (SK-MEL-5 melanoma): 38.9 µM
- TGI (HL-60(TB) leukemia): 11.7 µM
- TGI (UACC-257 melanoma): 32 µM
- TGI (OVCAR-5 ovarian): 35.9 µM
- TGI (OVCAR-3 ovarian): 32 µM
- TGI (K-562 leukemia): 55.2 µM
- TGI (M14 melanoma): 33.9 µM
- TGI (786-0 renal): 31.9 µM
- TGI (SW-620 colon): > 100 µM
- TGI (DU-145 prostate): 32.9 µM
- TGI (UO-31 renal): 29.4 µM
- TGI (SNB-19 CNS): 35.1 µM
- TGI (HOP-62 NSCLC): 35.7 µM
- TGI (OVCAR-4 ovarian): 30.7 µM
- TGI (NCI/ADR-RES ovarian): 51.3 µM
- TGI (MDA-MB-231 breast): 29.2 µM
